Test results from US20180271863A1, “TARGETING P2 PURINERGIC RECEPTORS TO TREAT HEPATOCELLULAR CARCINOMA (HCC)” (Baylor College of Medicine, priority 2015, published 2018).

Experiments:
Format in all cases: cell-based, human
[1] = system: Huh7 cells; assay: Western blotting of cyclin and CDK proteins in Huh7 cells
Description: (§1) Normal human primary hepatocytes isolated from healthy adults (no known history of HCC) in suspension or freshly-frozen prior to shipment (Cryoport Systems, CA) were purchased from Triangle Research Labs, NC. Fresh hepatocytes were plated on collagen-coated tissue culture plates or glass coverslips in Williams E complete media with additives (10% fetal bovine serum, 2 mM glutamine, […] insulin, 4 ng/ml glucagon, […] transferrin, 2.5 ng/ml sodium selenite, 10,000 U/ml penicillin, […] streptomycin, 50 g/ml gentamycin) for 3 h to ensure hepatocyte adherence to plates. Subsequently, hepatocytes were maintained in Williams E minimal media free from serum and growth factors for 24 h prior to treatment. Human hepatocellular carcinoma derived Huh7, and Hep3B, were cultured in Minimum Essential Medium Eagle (MEM); SNU-387 was cultured in Roswell Park Memorial Institute (RPMI) medium and PLC/PRF/5 cultured in Dulbecco's Modified Eagle's medium (DMEM). All maintenance culture media were supplemented with 10% fetal bovine serum (FBS), L-Glutamine (2 mM), penicillin (100 units/ml) and streptomycin ([…]) at 37° C. and 5% CO2. Cells were maintained in serum free media (containing 2 mM L-Glutamine, 100 units/ml penicillin and ([…])) streptomycin for 24 h prior to treatment.
Total protein extracts were obtained by homogenizing cells in total lysis buffer (50 mM Tris-HCl, pH 7.5, 0.5 M NaCl, 2 mM EGTA, 2 mM EDTA, 1.0% Triton X-100, 0.25% Deoxycholate, 1 m/ml pepstatin, 1.0 m/ml leupeptin, 1.0 m/ml aprotinin, 1.0 mM phenylmethylsulfonyl fluoride, 1.0 mM Dithiothreitol, 2.0 mM activated Na3VO4, and 2.0 mM NaF) and centrifuging at 14,000 rpm for 10 min (4° C.). Equal amounts of total proteins as determined by BCA protein Assay (Pierce, Rockford, Ill.) were analyzed by Western blotting. Blots were probed with antibody specific for a-tubulin or GAPDH to ensure equal loading of proteins in each lane.

[2] = system: Huh7 cells; assay: qRT-PCR of YAP target genes in Huh7 cells
Source text: Total RNA was isolated from human livers or cells and was amplified by qRT-PCR as described recently (Oncotarget 2015; 6:41162-41179). Next, Applicants tested whether extracellular nucleotide treatment may have an effect on YAP target genes important in hepatocellular carcinoma. […] Moreover, P2X3 antagonist (AF-353) pretreatment attenuated ATP mediated induction of survivin (FIG. 20G).

[3] = system: Huh7 cells; assay: Western blotting for hippo pathway phosphorylation (Mst1/2, LATS, Yap) in Huh7 cells
Description: Total protein extracts were obtained by homogenizing cells in total lysis buffer and analyzed by Western blotting as described recently (Oncotarget 2015; 6:41162-41179). […] Therefore, Applicants performed in vitro studies to test whether activation of P2 purinergic receptors may affect the hippo pathway and its downstream effectors. Huh7 cells—human derived hepatocellular carcinoma cells—maintained in serum free media for 24 hours—were treated with P2 purinergic receptor agonists. […] ADP treatment alone was also sufficient to induce LATs phosphorylation (2 h-1.7 fold, 4 h-1.5 fold) (FIG. 20B). […] Hippo kinases Mst1/2 and Lats1/2 work through a phosphorylation cascade to phosphorylate Yap, thereby retaining Yap in the cytoplasm. In spite of nucleotide-mediated Mst1/2 and Lats phosphorylation, ATP, ADP and ATPγS treatment was individually insufficient to induce Yap phosphorylation. […] Similarly, ATP treatment alone increased nuclear YAP protein expression (1.7 fold) (FIG. 20D).

[4] = system: Huh7 cells; assay: qRT-PCR of cyclin mRNA in Huh7 cells
Description: Normal human primary hepatocytes isolated from healthy adults (no known history of HCC) in suspension or freshly-frozen prior to shipment (Cryoport Systems, CA) were purchased from Triangle Research Labs, NC. Fresh hepatocytes were plated on collagen-coated tissue culture plates or glass coverslips in Williams E complete media with additives (10% fetal bovine serum, 2 mM glutamine, […] insulin, 4 ng/ml glucagon, […] transferrin, 2.5 ng/ml sodium selenite, 10,000 U/ml penicillin, […] streptomycin, 50 g/ml gentamycin) for 3 h to ensure hepatocyte adherence to plates. Subsequently, hepatocytes were maintained in Williams E minimal media free from serum and growth factors for 24 h prior to treatment. Human hepatocellular carcinoma derived Huh7, and Hep3B, were cultured in Minimum Essential Medium Eagle (MEM); SNU-387 was cultured in Roswell Park Memorial Institute (RPMI) medium and PLC/PRF/5 cultured in Dulbecco's Modified Eagle's medium (DMEM). All maintenance culture media were supplemented with 10% fetal bovine serum (FBS), L-Glutamine (2 mM), penicillin (100 units/ml) and streptomycin ([…]) at 37° C. and 5% CO2. Cells were maintained in serum free media (containing 2 mM L-Glutamine, 100 units/ml penicillin and ([…])) streptomycin for 24 h prior to treatment. Total RNA was isolated from human livers or cells using Trizol Reagent according to manufacturer's instructions (Invitrogen, NY). Complementary DNA (cDNA) synthesis was performed by reverse transcription of total RNA (2 μg) with high capacity cDNA reverse transcription kit (Applied Biosystems, Foster city, CA). The cDNA product was amplified by qRT-PCR in Step One Plus Real-Time PCR system using SYBR Green PCR Master Mix (Applied Biosystems, Grand Island, N.Y.). Quantitative expression values were determined using the […] as specified by manufacturers using GAPDH as a control.

[5] = system: Huh7 cells; assay: BrdU incorporation (proliferation) in Huh7 cells; conditions: nucleotide 100 μM
Description: To determine whether P2 purinergic receptor activation influences HCC cell proliferation, BrdU incorporation was assessed in HCC cells maintained in SFM for 24 hours and treated with ATP for 24 hours. ATP treatment alone was sufficient to induce proliferation in each of these cell lines (Huh7, 34%; Hep3B, 46%; SNU-387, 47% and PLC/PRF/5, 24%), identifying nucleotides as liver cancer cell mitogens (FIG. 7A).
Extracellular ATP can be hydrolyzed to ADP and adenosine by ectonucleotidases at the plasma membrane. Therefore, Applicants tested the effects of ATPγS (non-hydrolyzable analog of ATP) or ADP (break down product of ATP) (100 μM) on Huh7 cell proliferation. ATPγS treatment alone was sufficient to induce BrdU incorporation as early as 12 hours (42%); maintained at 18 h (30%) and 24 h (29%) in Huh7 cells (FIG. 8). ADP was also able to independently increase the number of BrdU positive nuclei (12 h, 30%; 18 h, 35%; 24 h, 37%) (FIG. 8). Furthermore, ATP treatment (18 h) increased cell proliferation and viability in all four cell lines, as determined by MTT assay (Huh7, 65%; Hep3B, 81%; SNU-387, 90% and PLC/PRF/5, 43%) (FIG. 7B).
as §1
Formalin-fixed and paraffin embedded liver sections from HCC patients were analyzed by immunohistochemistry with anti-P2X3 antibody (Abcam, Cambridge, Mass.). HCC cells were grown on glass coverslips; BrdU (10 μM, Roche, Indianapolis, Ind.) was added to culture media for 1 h prior to fixation (cold acetone:methanol, 1:1) and stained using anti-BrdU antibody (DAKO, Carpinteria, Calif.) and DAB Peroxidase Substrate Kit (Vector Labs, Burlingame, Calif.), according to manufacturer's instructions. Counterstaining was done with hematoxylin. BrdU positive cells were counted and expressed as a percentage of the total number of cells in ten randomly selected high-power fields (20×) per coverslips.

## O=C(O)c1cc(C(=O)O)c(C(=O)N(Cc2cccc(Oc3ccccc3)c2)[C@H]2CCCc3ccccc32)cc1C(=O)O [A317491]
[1]; A317491 30 μM pre-treatment, ATP 24 h
  effect on ATP induced cyclin D3 expression: attenuated

## Nc1ncnc2c1ncn2[C@@H]1O[C@H](COP(=O)(O)OP(=O)(O)O)[C@@H](O)[C@H]1O [ADP]
[2]; 24 h treatment
  AREG gene expression: 2.6 fold
  CTGF gene expression: 2.5 fold
  Sox9 gene expression: 1.4 fold
  cyclin E gene expression: 2.4 fold
  survivin gene expression: 1.4 fold
[3]; Huh7, 12 h treatment
  Yap phosphorylation: 0.2 fold
  induction of Yap phosphorylation: insufficient
[4]; 12 h treatment
  Cyclin D3 mRNA expression vs untreated cells: 2.7 fold
[4]; 36 h treatment
  Cyclin D3 mRNA expression vs untreated cells: 2.8 fold
[5]; 12 h
  BrdU incorporation / BrdU positive nuclei: 30%
[5]; 18 h
  BrdU incorporation / BrdU positive nuclei: 35%
[5]; 24 h
  BrdU incorporation / BrdU positive nuclei: 37%

## Cc1ccc(C(=O)Nc2ccc(S(=O)(=O)O)c3cc(S(=O)(=O)O)cc(S(=O)(=O)O)c23)cc1NC(=O)c1cccc(NC(=O)Nc2cccc(C(=O)Nc3cc(C(=O)Nc4ccc(S(=O)(=O)O)c5cc(S(=O)(=O)O)cc(S(=O)(=O)O)c45)ccc3C)c2)c1 [Suramin]
[4]; Suramin pre-treatment (30 minutes) before 24 hours nucleotide treatment
  effect on nucleotide induction of cyclin D3 mRNA: dose dependent attenuation
[4]; Suramin treatment alone
  effect on baseline cyclin D3 expression: reduced

## CSc1nc(N)c2ncn([C@@H]3O[C@H](COP(=O)(O)OP(=O)(O)OP(=O)(O)O)[C@@H](O)[C@H]3O)c2n1 [2-MeSATP]
[1]; 2MeSATP 50 μM alone, 24 h
  cyclin D3 expression: 1.9 fold

## Cc1nc(N=Nc2ccc(S(=O)(=O)O)cc2S(=O)(=O)O)c(COP(=O)(O)O)c(C=O)c1O [PPADS]
[2]; ATPγS ± PPADS, 24 h
  effect on ATPγS-induced AREG and CTGF expression: completely attenuated

## O=c1ccn([C@@H]2O[C@H](COP(=O)(O)OP(=O)(O)OP(=O)(O)O)[C@@H](O)[C@H]2O)c(=O)[nH]1 [UTP]
[3]; Huh7, serum free 24 hours, as early as 5 minutes, sustained at 4 hours
  Mst1/2 phosphorylation: significantly induced
